From article PMC10537354, “Pyrenebutyrate Enhances the Antibacterial Effect of Peptide-Coupled Antisense Peptide Nucleic Acids in Streptococcus pyogenes” (Microorganisms, 2023)

How the values were obtained:
[1] = test system: S. pyogenes serotype M49 strain 591; experiment: Bacterial killing assay, S. pyogenes; type: cell-based, Streptococcus pyogenes; settings: 6 h; for log CFU reduction: S. pyogenes M49 591, 5 µM CPP–PNA, n = 5
Procedure: (§1) S. pneumoniae serotype 4 strain TIGR4: after culturing, S. pneumoniae serotype 4 strain TIGR4 was diluted to approximately 10^5 CFU/mL in phosphate-buffered saline (PBS)/THY (95%/5%). S. pyogenes serotype M49 strain 591: An overnight culture of S. pyogenes serotype M49 strain 591 was diluted to approximately 10^5 CFU/mL in PBS/BHI (70%/30%). An amount of 400 µL of the respective bacterial suspension was transferred to a 2 mL polypropylene reaction tube. 4-(1-pyrenyl)-butyric acid (Merck, Darmstadt, Germany) was dissolved to 1 M in DMSO. The solution was stored in the dark and further dilution steps were performed in PBS and 3% DMSO. An amount of 50 µL PyB in PBS/DMSO was added to the bacterial suspension at a final concentration of 50–400 µM and pre-incubated for 10 min at 37 °C and 7 rpm (Rotor SB3, Stuart, Staffordshire, UK). An amount of 50 µL PBS served as a mock control. Following pre-incubation, 50 µL of CPP–PNA solution was added to a final concentration of 5–10 µM or as indicated. An amount of 50 µL molecular grade H2O served as a mock control. The reaction tubes were incubated for another 6 h at 37 °C and 7 rpm. Killing kinetics were observed over 12 h. Samples were collected at time points of 2–12 h following addition of CPP–PNAs, and bacteria were plated on BHI solid medium following serial dilution. Agar plates were incubated for 24 h at 37 °C under a 5% CO2 atmosphere and CFUs were counted. The bacterial count at the beginning of the experiment was 1–3 × 10^5 CFU/mL. Each experiment was conducted at least three times in independent biological replicates.

[2] = test system: S. pneumoniae serotype 4 strain TIGR4; experiment: Bacterial killing assay, S. pneumoniae; type: cell-based, Streptococcus pneumoniae; settings: for Significance of the effect of PyB pre-treatment on antimicrobial efficacy (CFU reduction): S. pneumoniae TIGR4, 10 µM CPP–PNA, 200 µM PyB 10 min pre-treatment vs none, one-way ANOVA; for Change of antibacterial activity in the presence of PyB (non-significant trend): S. pneumoniae TIGR4, 200 µM PyB pre-treatment, related to proportion of positively charged residues of the CPP; for log CFU reduction: S. pneumoniae TIGR4, CPP-anti-gyrA PNA (10 µM in this experiment), without PyB
Procedure: as §1, with “The bacterial count at the beginning of the experiment was 1–3 × 10^5 CFU/mL.” left out

[3] = test system: S. pyogenes serotype M49 strain 591; experiment: In vitro time killing assay (killing kinetics over 12 h); type: cell-based, Streptococcus pyogenes; settings: n = 3
Procedure: as §1
Therefore, the kinetics of the antimicrobial activity of K8-conjugated anti-gyrA PNA in the presence of PyB were studied in an in vitro time killing assay in S. pyogenes. Bacteria were treated with 2.5 or 5 μM CPP-antisense PNAs or scrambled control PNAs (Figure 3) with or without pre-treatment with 100 µM PyB. Samples were collected at 2, 4, 6, and 12 h following antisense treatment. CFUs per milliliter were determined by plating of serial dilutions and plotted over time. Untreated bacteria grew by 1–1.5 log CFU over the course of the experiment. […] Following treatment with 2.5 µM K8-conjugated scPNA, no reduction in bacterial counts was observed throughout the experiment. Upon treatment with 5 µM K8-conjugated scPNA, growth was reduced by 0.6 log CFU in comparison to the untreated control, indicating an inhibitory effect of the CPP under these conditions. Overall, pre-treatment with PyB enhanced the activity of K8-anti-gyrA PNA and allowed the eradication of S. pyogenes in vitro.

Question: Which results are given for `O=C(O)CCCc1ccc2ccc3cccc4ccc1c2c34` [PyB, 4-(1-pyrenyl)-butyric acid, reference compound]?
Answer: Toxicity of PyB (CFU/mL compared to untreated control) ([1]; S. pyogenes 591, 5 × 10^5 CFU/mL, PyB alone 50–200 µM, stated up to 200 µM, n = 4): No significant toxicity; Viable counts after treatment with PyB ([1]; S. pyogenes, 200 µM PyB alone, n = 4): decreased slightly; Toxicity of PyB (CFU/mL compared to untreated control) ([2]; S. pneumoniae TIGR4, 8 × 10^5 CFU/mL, PyB alone 50–400 µM, 6 h, stated up to 400 µM, n = 4): unaffected

Question: How did the “Reduction in bacterial counts throughout the experiment” value ([3]; 2.5 µM scrambled control, 12 h) turn out when “KKKKKKKK-eg-attagactgt [K8-anti-gyrA scPNA, Oligolysin (K8) coupled to scrambled control PNA attagactgt, S. pyogenes]” was run?
Answer: no reduction

Question: What about the “Growth reduction in comparison to the untreated control” value ([3]; 5 µM scrambled control, 12 h course) of the same molecule?
Answer: 0.6 log CFU

Question: Which “log CFU reduction” value ([1]; after pre-treatment with 100 µM PyB for 10 min) does the source give for “KKKKKKKK-eg-tgcatttaag [K8-anti-gyrA PNA, Oligolysin (K8) coupled to anti-gyrA PNA tgcatttaag, S. pyogenes]” here?
Answer: 4.8 log CFU

Question: What about the “log CFU reduction” value ([1]; without PyB pre-treatment, PBS/BHI (70%/30%)) of the same molecule?
Answer: 3.7 log CFU

Question: And the “Time until clearance of S. pyogenes CFUs” value ([3]; 5 µM, after pre-treatment with 100 µM PyB)?
Answer: 12 h

Question: And the “Eradication of S. pyogenes during the course of the assay” value ([3]; 2.5 or 5 µM, without PyB, 12 h)?
Answer: not eradicated

Question: What about the “Viable bacteria over time” value ([3]; 2.5 or 5 µM, without PyB, samples at 2, 4, 6, 12 h) of the same molecule?
Answer: constant decrease

Question: Which results are given for “RQIRIWFQNRRMRWRR-eg-tgcattaata [PenArg-anti-gyrA PNA, PenArg coupled to anti-gyrA PNA tgcattaata, S. pneumoniae]”?
Answer: Significance of the effect of PyB pre-treatment on antimicrobial efficacy (CFU reduction) ([2]; 6 h): no significant effect; Change of antibacterial activity in the presence of PyB (non-significant trend) [2]: not enhanced; log CFU reduction ([2]; 6 h): 3.3 log CFU

Question: Which results are given for “RRRRRRRRR-eg-tgcattaata [R9-anti-gyrA PNA, R9 coupled to anti-gyrA PNA tgcattaata, S. pneumoniae]”?
Answer: Significance of the effect of PyB pre-treatment on antimicrobial efficacy (CFU reduction) ([2]; 6 h): no significant effect; Change of antibacterial activity in the presence of PyB (non-significant trend) [2]: slightly increased; log CFU reduction ([2]; 6 h): 4 log CFU

Question: What does the source list for “RXRRXRRXRRXRXB-eg ^1 -tgcatttaag [(RXR)4XB-anti-gyrA PNA, (RXR)4XB coupled via eg linker to anti-gyrA PNA tgcatttaag, S. pyogenes]”?
Answer: Significance of the effect of PyB pre-treatment on antimicrobial efficacy (CFU reduction) ([2]; 6 h): did not significantly enhance; Change of antibacterial activity in the presence of PyB (non-significant trend) [2]: not enhanced
